Source: PubChem BioAssay AID743432 (The Scripps Research Institute Molecular Screening Center, 2014)
Calls of active or inactive are those of the source. How the calls were made is not given here.

Biological target: Sphingosine 1-phosphate receptor 4 (Homo sapiens) (UniProt O95977)
Assay: S1P4 receptor antagonists, late-stage follow-up, selectivity assay for S1PR3 antagonist project, cell-based, FRET, dose response (AID 743432)
Details: S1P4 cell line

Sphingosine 1-phosphate receptor 4 (Homo sapiens), sequence (O95977 whole entry, looked up): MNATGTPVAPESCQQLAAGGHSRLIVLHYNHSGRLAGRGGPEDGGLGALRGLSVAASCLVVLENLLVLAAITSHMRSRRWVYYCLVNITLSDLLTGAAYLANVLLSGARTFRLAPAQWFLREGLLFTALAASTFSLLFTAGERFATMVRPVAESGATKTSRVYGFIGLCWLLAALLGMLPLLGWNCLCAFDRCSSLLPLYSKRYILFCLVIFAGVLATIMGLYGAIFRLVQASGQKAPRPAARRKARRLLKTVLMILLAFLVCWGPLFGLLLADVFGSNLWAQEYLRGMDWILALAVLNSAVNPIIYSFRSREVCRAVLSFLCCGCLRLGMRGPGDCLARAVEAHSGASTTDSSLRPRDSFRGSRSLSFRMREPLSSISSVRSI

IC50	SMILES
> 50 µM (inactive)	COc1ccc(C(=O)NC(c2ccccc2)c2nc(-c3ccccc3)no2)cc1 (stereo not given)
> 50 µM (inactive)	O=C(NC(c1ccccc1)c1nc(-c2ccccc2)no1)c1cccc(Cl)c1 (stereo not given)
> 50 µM (inactive)	O=C(NC(c1ccccc1)c1nc(-c2ccccc2)no1)c1cccc(Cl)n1 (stereo not given)
> 50 µM (inactive)	Cc1ccc(C(NC(=O)c2cccc(Cl)c2)c2nc(-c3ccccc3)no2)cc1 (stereo not given)
> 50 µM (inactive)	CCc1ccc(C(NC(=O)c2cccc(Cl)c2)c2nc(-c3ccccc3)no2)cc1 (stereo not given)
> 50 µM (inactive)	O=C(NC(c1ccc(Cl)c(Cl)c1)c1nc(-c2ccccc2)no1)c1ccccc1 (stereo not given)
5.2 µM	O=C(NC(c1cccc(Cl)c1)c1nc(-c2ccccc2)no1)c1cccc(Cl)c1 (stereo not given)
> 50 µM (inactive)	O=C(NC(c1cccc(Cl)c1)c1nc(-c2ccccc2)no1)c1ccc(Cl)c(Cl)c1 (stereo not given)
> 50 µM (inactive)	Cc1ccc(C(=O)NC(c2ccccc2)c2nc(-c3ccccc3)no2)cc1 (stereo not given)
> 50 µM (inactive)	O=C(NC(c1ccccc1)c1nc(-c2ccccc2)no1)c1cccc(Br)c1 (stereo not given)

The remaining lines, values behind:

SMILES	IC50
O=C(NC(c1ccc(Cl)cc1)c1nc(-c2cccc(Cl)c2)no1)c1cccc(Cl)c1 (stereo not given)	> 50 µM (inactive)
O=C(NC(c1ccc(Cl)cc1)c1nc(-c2ccccn2)no1)c1cccc(Cl)c1 (stereo not given)	> 50 µM (inactive)
O=C(NC(c1nc(-c2ccccc2)no1)C1CCCCC1)c1ccc(Cl)c(Cl)c1 (stereo not given)	> 50 µM (inactive)
O=C(NC(c1ccc(Cl)c(Cl)c1)c1nc(-c2ccccc2)no1)c1ccc(Cl)c(Cl)c1 (stereo not given)	> 50 µM (inactive)
N#Cc1ccc(C(=O)NC(c2ccc(Cl)c(Cl)c2)c2nc(-c3ccccc3)no2)cc1 (stereo not given)	3.1 µM
O=C(c1cccc(Cl)c1)N(CCO)C(c1ccc(Cl)c(Cl)c1)c1nc(-c2ccccc2)no1 (stereo not given)	inactive
O=C(NC(c1ccc(Cl)cc1)c1nc(-c2ccccc2)no1)c1ccc(Cl)c(Br)c1 (stereo not given)	> 50 µM (inactive)
O=C(NC(c1ccc(Br)cc1)c1nc(-c2ccccc2)no1)c1ccc(Cl)c(Cl)c1 (stereo not given)	> 50 µM (inactive)
O=C(NC(c1cccc(Cl)c1)c1nc(-c2ccccc2)no1)c1cc(Cl)cc(Cl)c1 (stereo not given)	> 50 µM (inactive)
O=C(NC(c1ccc(Cl)cc1)c1nc(-c2ccccc2)no1)c1ccc(Cl)c(Cl)c1 (stereo not given)	> 50 µM (inactive)
